Columns and labels:
[1] = target: T1, KRasG12C (Homo sapiens, UniProt P01116, G12C); assay: KRasG12C functional assay (HTRF nucleotide exchange / Raf RBD binding); type: biochemical; details: GDP loaded biotinylated KRasG12C, samples incubated 4 hrs, FRET readout; single experiment or average of two or more
T1 construct: biotin (biotinylated); made in house
Protocol: KRasG12C Functional Assay
All enzyme and substrate solutions were prepared in assay buffer containing 20 mM HEPES (pH 7.5), 5 mM MgCl2, 150 mM NaCl, and 0.01% Tween 20. […] In a separate mix 20 nM GST-Raf Ras binding domain (GST-Raf RBD, purified in house) and 4 μg/ml anti-GST XL665 antibody (Cisbio) was prepared in assay buffer containing 50 mM Potassium Fluoride and 0.05 mg/ml BSA and equilibrated for 4 hours before adding 0.6 μM Guanosine 5′-[γ-thio]triphosphate (GTPγS, Sigma) and 0.08 μM SOS (purified in house). 5 μl of the GST-RAF RBD mix was then dispensed into each well of the assay plate. […] This is detected simultaneously via the specific binding interaction between active GTPγS KRas^G12C with GST-Raf RBD which brings the europium and XL665 into close proximity enabling an increased FRET signal to be detected on a Pherastar (BMG) plate reader equipped with the HTRF filter module. […] IC50 values were calculated from normalised dose-response response FRET data curve fitted in Genedata screener (Basel, Switzerland).

[2] = target: T1, KRasG12C; assay: KRasG12C Mass Spectrometry adducting assay; type: binding; details: 10 μM test compound, 4 μM KRasG12C, 4 hours reaction; single experiment or average of two or more
Protocol: KRasG12C Mass Spectrometry Adducting Assay
Enzyme solutions were prepared in assay buffer containing 20 mM HEPES (pH 7.5), 5 mM MgCl2, and 150 mM NaCl. 4 μM GDP loaded biotinylated KRas^G12C was prepared in assay buffer and 50 μl added into each well of a 96 well polypropylene assay plate (Greiner, #651201) containing 500 nl of 1 mM test compounds (final concentration 10 μM), this was allowed to react for 4 hours before the addition of 50 μl 1% Formic acid to quench the reaction. The plate was sealed before reading on a Xevo G2 QTOF (Waters) and Acquity LC system (Waters). 10 μl of sample was injected onto a Xbridge BEH300; C4; 3.5 um; 2.1×50 mm column (Waters) running a 3 minute gradient. Blank samples were run in between each test sample.
Data was analysed in Mass Lynx software (Waters), the Total ion count (TIC) trace was used and the eluted protein peak data combined. Using the combined spectrum the data was deconvoluted using MaxEnt1 method. The peak area for apo-protein KRas^G12C (APO) and KRAS+relative cmpd mass (adduct) were measured, and a percentage adduct was calculated using the following calculation: Percent adduct=100*(area of adduct peak/(sum of APO+adduct peaks)

[3] = In vivo studies: oral bioavailability and clearance; details: rat
[4] = Incubations with hepatic systems (turnover); type: in vitro ADME; details: result in words
[5] = Reactivity to glutathione (co-incubation with glutathione in buffer)

IC50 [1] [µM] | KRasG12C M.S. Binding Mean adduct % [2] [%] | Structure (SMILES) | other results
0.062 | 96 | C=CC(=O)N1C[C@@H]2COc3cnc4c(C)c(-c5c(O)cccc5F)c(Cl)cc4c3N2C[C@H]1C (single isomer, unassigned) [Compound 40] | bioavailability ([3]; po, species not given, read-out: F value (oral bioavailability)): 43%
0.005 | 100 | C=CC(=O)N1C[C@@H]2C(=O)N(C)c3cnc4c(F)c(-c5c(O)cccc5F)c(Cl)cc4c3N2C[C@H]1C (single isomer, unassigned) [Example 22] | turnover in incubations with hepatic systems [4]: low turnover; half-life [5]: 15.5 h
0.082 | 97 | C=CC(=O)N1CCN2c3c(cnc4c(C)c(-c5c(O)cccc5F)c(C)nc34)N(C)C(=O)[C@H]2C1 (single isomer, unassigned) [Compound 92] | 
0.257 | 77 | C=CC(=O)N1CCN2c3c(cnc4cc(-c5c(O)cccc5F)c(Cl)c(OC)c34)OC[C@H]2C1 [Compound 83, 1-[(4aR)-11-Chloro-10-(2-fluoro-6-hydroxyphenyl)-12-methoxy-1,2,4a,5-tetrahydropyrazino[1′,2′:4,5][1,4]oxazino[2,3-c]quinolin-3(4H)-yl]prop-2-en-1-one] | 
0.096 | 96 | C#Cc1cc2c3c(cnc2cc1-c1c(C)ccc2[nH]ncc12)OC[C@H]1CN(C(=O)C=C)CCN31 (single isomer, unassigned) [Compound 75] | 
0.745 | 87 | C=CC(=O)N1CCN2c3c(cnc4cc(-c5c(O)cccc5F)c(Cl)cc34)N(C)C(=O)C2(C)C1 (single isomer, unassigned) [Compound 33, 11-Chloro-10-(2-fluoro-6-hydroxyphenyl)-4a,6-dimethyl-3-(prop-2-enoyl)-2,3,4,4a-tetrahydro-1H-pyrazino[1′,2′:4,5]pyrazino[2,3-c]quinolin-5(6H)-one] | 
11.4 | 4 | C=CC(=O)N1CCN2c3c(cnc4cc(-c5c(C)ccc6[nH]c(=O)n(C)c56)c(Cl)cc34)OC[C@H]2C1 (single isomer, unassigned) [Compound 68] | 
0.047 | 95 | C=CC(=O)N1CCN2c3c(cnc4c(F)c(-c5c(C)ccc6[nH]ncc56)c(Cl)cc34)N(C)C(=O)[C@H]2C1 (single isomer, unassigned) [Compound 49] | 
0.028 | 60 | C=CC(=O)N1CCN2c3c(cnc4c(F)c(-c5c(C)ccc6[nH]cnc56)c(Cl)cc34)OC[C@H]2C1 (single isomer, unassigned) [Compound 77] | 
3.5 | 3 | C=CC(=O)N1CCN2c3c(cnc4c(F)c(-c5c(O)cccc5F)c(Cl)cc34)N(C)C(=O)C2C1 (single isomer, unassigned) [Example 18, 3-acryloyl-11-chloro-9-fluoro-10-(2-fluoro-6-hydroxyphenyl)-6-methyl-2,3,4,4a-tetrahydro-1H-pyrazino[1′,2′:4,5]pyrazino[2,3-c]quinolin-5(6H)-one] | 
0.231 | 75 | C=CC(=O)N1CCN2c3c(cnc4cc(-c5c(O)cccc5F)c(Cl)cc34)N(CCN(C)C)C[C@H]2C1 [Example 12, 1-((4aS)-11-Chloro-6-(2-(dimethylamino)ethyl)-10-(2-fluoro-6-hydroxyphenyl)-1,2,4,4a,5,6-hexahydro-3H-pyrazino[1′,2′:4,5]pyrazino[2,3-c]quinolin-3-yl)prop-2-en-1-one] | 
0.047 | 93 | C=CC(=O)N1C[C@@H]2COc3cnc4cc(-c5c(O)cccc5F)c(Cl)cc4c3N2C[C@H]1C [Example 11, 1-[(2R,4aR)-11-Chloro-10-(2-fluoro-6-hydroxyphenyl)-2-methyl-1,2,4a,5-tetrahydropyrazino[1′,2′:4,5][1,4]oxazino[2,3-c]quinolin-3(4H)-yl]prop-2-en-1-one] | 

Structure (SMILES) | IC50 [1] [µM] | KRasG12C M.S. Binding Mean adduct % [2] [%] | other results
C=CC(=O)N1CCN2c3c(cnc4c(F)c(-c5c(O)cccc5F)c(Cl)cc34)N(C)C(=O)[C@H]2C1 (single isomer, unassigned) [Example 17, 3-acryloyl-11-chloro-9-fluoro-10-(2-fluoro-6-hydroxyphenyl)-6-methyl-2,3,4,4a-tetrahydro-1H-pyrazino[1′,2′:4,5]pyrazino[2,3-c]quinolin-5(6H)-one] | 0.018 | 100 | turnover in incubations with hepatic systems [4]: low turnover; half-life [5]: 9.75 h
C=CC(=O)N1CCN2c3c(cnc4c(C)c(-c5c(O)cccc5F)c(Cl)cc34)OC[C@H]2C1 (single isomer, unassigned) [Compound 39] | 0.097 | 94 | clearance [3]: 0.36 L/h/kg; F (oral bioavailability), in words ([3]; result in words): complete
C=CC(=O)N1CCN2c3c(cnc4c(C)c(-c5c(O)cccc5F)c(Cl)cc34)OC[C@H]2C1 (single isomer, unassigned) [Compound 38] | 9.7 | 7 | 
C=CC(=O)N1CCN2c3c(cnc4c(OC)c(-c5c(O)cccc5F)c(Cl)cc34)OC[C@H]2C1 (single isomer, unassigned) [Compound 24] | 0.07 | 96 | 

Reference: US10597405B2, “Chemical compounds” (ASTRAZENECA AB, priority 2017, dated 2020)
